Literature values in patent US20190114390A1, “DRUG REPURPOSING BASED ON DEEP EMBEDDINGS OF GENE EXPRESSION PROFILES” (BioAge Labs, Inc., priority 2017, published 2019).

How the values were obtained:
imidazole I-2 receptors = settings: known property
[1] = known property

| SMILES | effect upon imidazole I-2 receptors (imidazole I-2 receptors) | effect on glucose levels [1] |
| --- | --- | --- |
| NC(=O)NC1NC(=O)NC1=O (stereo not shown) [allantoin] | direct inhibitory effect upon imidazole I-2 receptors | lowers glucose levels |
| CN(C)C(=N)N=C(N)N [Metformin, metformin] | direct inhibitory effect upon imidazole I-2 receptors | lower glucose levels |
